Laboratory results: patent US8440724B2, “Inhibiting neurotransmitter reuptake” (Mayo Foundation for Medical Education and Research, priority 2008, dated 2013)
“Also recorded” adds a separate entry of the source.

What was measured:
[1] = target: T1, human serotonin transporter (hSERT) (Homo sapiens, UniProt P31645); test: Radioligand binding to cloned hSERT, [3H]citalopram, HEK-293 cell membranes; conditions: for Kd: Geometric Mean ± SEM, HCl salts, read-out: Equilibrium Dissociation Constant (KD) for Transporter Binding, hSERT (S); for Binding at hSERT compared to PRC200-SS: in words
T1 construct: expressed in transfected cells; host or cells: HEK-293, stably transfected
T1 sequence (P31645 whole entry): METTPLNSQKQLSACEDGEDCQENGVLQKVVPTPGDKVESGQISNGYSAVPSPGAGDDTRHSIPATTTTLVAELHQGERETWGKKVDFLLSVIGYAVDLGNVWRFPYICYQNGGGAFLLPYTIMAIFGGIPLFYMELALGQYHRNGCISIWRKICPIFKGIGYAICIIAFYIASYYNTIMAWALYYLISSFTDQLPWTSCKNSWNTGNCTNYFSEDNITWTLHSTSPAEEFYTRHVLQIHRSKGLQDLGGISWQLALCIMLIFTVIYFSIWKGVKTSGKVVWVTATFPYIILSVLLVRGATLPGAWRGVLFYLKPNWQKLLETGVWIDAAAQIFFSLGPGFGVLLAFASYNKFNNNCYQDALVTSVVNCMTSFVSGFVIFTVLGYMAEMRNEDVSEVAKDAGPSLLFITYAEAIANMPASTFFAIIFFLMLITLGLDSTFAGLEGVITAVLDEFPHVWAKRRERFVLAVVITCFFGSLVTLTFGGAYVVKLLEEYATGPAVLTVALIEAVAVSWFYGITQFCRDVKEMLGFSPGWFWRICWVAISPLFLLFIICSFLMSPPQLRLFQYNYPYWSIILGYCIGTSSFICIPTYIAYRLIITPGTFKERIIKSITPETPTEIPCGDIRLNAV
Description: (§1) HEK-293 cells expressing the recombinant hSERT or hDAT were incubated with Dulbecco's modified Eagles medium (MEM) supplemented with 0.1 mM nonessential amino acid solution for MEM, 5% v/v fetal bovine serum and 1 U/mL penicillin/streptomycin solution. Cells expressing the hNET transporter were incubated with Dulbecco's modified Eagles medium supplemented with 10% v/v fetal bovine serum and 100 U/mL penicillin/streptomycin solution and 2 mM L-glutamine. The cells were grown until 70-80% confluent on 175 cm^2 flasks in a humidified 10% CO2/90% air environment at 37° C., with the selecting antibiotic Geneticin sulfate at 250 μg/mL. The cells were incubated in 10% CO2, 90% air at 37° C. and 100% humidity.
(§2) Cell membranes containing hSERT, hNET, or hDAT were prepared from the cell lines to assay ligand binding for each of the transporters. […] The washed cells were incubated for 5 minutes at 37° C. in 10 mL solution 1 containing 100 mM ethylene glycol-bis N,N,N′,N′-tetraacetic acid (EGTA). The cells were then scraped from the flask surface with a rubber spatula, placed into a centrifuge tube, and collected by centrifugation at 1000×g for 5 minutes at 4° C. The resulting supernatant was discarded, and the cell pellet was resuspended in 0.5 to1.0 mL of the appropriate binding buffer (described below). The resuspended cell pellet was homogenized using a Polytron for 10 seconds at setting 6. The resulting homogenate was centrifuged at about 36,000×g for 10 minutes at 4° C. The supernatant was discarded, and the pellet was resuspended in the same volume of the appropriate binding buffer and centrifuged again. The supernatant was discarded, and the final pellet containing cell membranes was resuspended in the appropriate binding buffer and stored at −80° C. until use.
Radioligand binding assays for the indicated transporters were performed as follows. To assess binding to the cloned hSERT, cells expressing hSERT were homogenized in 50 mM Tris-HCl with 120 mM NaCl and 5 mM KCl (pH 7.4). The binding reaction consisted of 10 μg cell membrane protein, […] [^3H]citalopram (citalopram, [N-methyl-^3H], specific activity 79.0 Ci/mmol; PerkinElmer, Boston, Mass.), and varying concentrations of either unlabeled citalopram or the test compound. A reaction to determine non-specific binding consisted of 10 μg cell membrane protein, 0.5 nM [^3H]citalopram, and 1 μM final concentration of unlabeled citalopram. The reactions were incubated at 22° C. for 60 minutes. Following incubation, the reactions were terminated by rapid filtration through separate GF/B filter strips pretreated with 0.2% polyethylenimine in a 48-well Brandel cell harvester. The cell membrane-containing filter strips were then rinsed five times with ice-cold 0.9% NaCl. After rinsing, individual filters were cut from the strip and placed in a scintillation vial containing 6.5 mL of Redi-Safe (Beckman-Coulter, Fullerton, Calif.).
(§3) The program was modified to calculate the Hill coefficient (nH). Data are presented as geometric mean±S.E.M. of at least three independent experiments. One-component models and two-component models were compared using the root mean square error of each fit and the F test.

[2] = target: T2, human norepinephrine transporter (hNET) (Homo sapiens, UniProt P23975); test: Radioligand binding to cloned hNET, [3H]nisoxetine, HEK-293 cell membranes; conditions: Geometric Mean ± SEM; HCl salts; read-out: Equilibrium Dissociation Constant (KD) for Transporter Binding, hNET (N)
T2 construct: expressed in transfected cells; host or cells: HEK-293, stably transfected
T2 sequence (P23975 whole entry): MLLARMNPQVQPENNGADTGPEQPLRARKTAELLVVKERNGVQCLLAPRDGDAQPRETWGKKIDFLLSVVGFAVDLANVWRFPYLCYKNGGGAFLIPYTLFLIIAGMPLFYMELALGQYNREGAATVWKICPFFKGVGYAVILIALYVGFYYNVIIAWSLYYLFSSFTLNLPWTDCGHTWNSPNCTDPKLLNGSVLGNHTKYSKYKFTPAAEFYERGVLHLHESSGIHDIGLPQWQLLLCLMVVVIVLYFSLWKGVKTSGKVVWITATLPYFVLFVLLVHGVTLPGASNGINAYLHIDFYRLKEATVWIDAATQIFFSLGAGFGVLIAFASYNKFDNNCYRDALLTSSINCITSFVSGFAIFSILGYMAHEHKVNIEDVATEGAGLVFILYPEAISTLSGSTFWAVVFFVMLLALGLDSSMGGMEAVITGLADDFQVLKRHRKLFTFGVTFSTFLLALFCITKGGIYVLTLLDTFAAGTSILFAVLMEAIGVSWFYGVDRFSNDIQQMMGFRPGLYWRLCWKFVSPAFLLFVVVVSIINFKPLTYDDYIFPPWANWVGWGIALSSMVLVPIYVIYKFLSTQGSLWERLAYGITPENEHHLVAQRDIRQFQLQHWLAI
Description: as §1, §2
To assess binding to the cloned hNET, cells expressing hNET were homogenized in 50 mM Tris-HCl with 300 mM NaCl and 5 mM KCl (pH 7.4). The binding reaction consisted of 5 μg cell membrane protein, 0.5 nM [^3H]nisoxetine (nisoxetine HCl, [N-methyl-^3H], specific activity 82.0 Ci/mmol; Amersham, Arlington Hts., Ill.), and varying concentrations of either unlabeled nisoxetine or the test compound. A reaction to determine non-specific binding consisted of 5 μg cell membrane protein, 0.5 nM [^3H]nisoxetine, and 1 μM final concentration of unlabeled nisoxetine. The reactions were incubated at 22° C. for 60 minutes. Following incubation, the reactions were terminated by rapid filtration through separate GF/B filter strips pretreated with 0.2% polyethylenimine in a 48-well Brandel cell harvester. The cell membrane-containing filter strips were then rinsed five times with ice-cold 0.9% NaCl. After rinsing, individual filters were cut from the strip and placed in a scintillation vial containing 6.5 mL of Redi-Safe (Beckman-Coulter, Fullerton, Calif.).
as §3

[3] = target: T3, human dopamine transporter (hDAT) (Homo sapiens, UniProt Q01959); test: Radioligand binding to cloned hDAT, [3H]WIN35428, HEK-293 cell membranes; conditions: for Binding at hDAT compared to PRC200-SS: in words
T3 construct: expressed in transfected cells; host or cells: HEK-293, stably transfected
T3 sequence (Q01959 whole entry): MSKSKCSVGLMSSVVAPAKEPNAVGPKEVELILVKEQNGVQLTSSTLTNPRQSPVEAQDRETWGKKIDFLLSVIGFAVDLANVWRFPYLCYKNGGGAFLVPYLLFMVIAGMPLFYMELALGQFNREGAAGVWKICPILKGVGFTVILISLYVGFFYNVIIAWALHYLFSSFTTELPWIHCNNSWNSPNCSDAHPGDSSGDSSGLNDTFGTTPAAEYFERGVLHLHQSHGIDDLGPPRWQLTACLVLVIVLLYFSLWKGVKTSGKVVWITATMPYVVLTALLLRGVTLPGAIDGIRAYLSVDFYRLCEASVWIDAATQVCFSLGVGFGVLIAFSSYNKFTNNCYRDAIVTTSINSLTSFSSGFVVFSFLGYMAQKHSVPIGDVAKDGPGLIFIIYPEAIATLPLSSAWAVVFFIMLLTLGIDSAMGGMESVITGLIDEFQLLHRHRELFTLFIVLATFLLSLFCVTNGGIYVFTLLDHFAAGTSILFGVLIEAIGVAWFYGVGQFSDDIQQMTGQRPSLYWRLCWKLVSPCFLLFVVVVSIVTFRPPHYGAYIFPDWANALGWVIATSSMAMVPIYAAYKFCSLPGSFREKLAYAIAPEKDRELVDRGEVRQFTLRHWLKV
Description: as §1, §2
To assess binding to the cloned hDAT, cells expressing hDAT were homogenized in 50 mM Tris-HCl with 120 mM NaCl (pH 7.4). The binding reaction contained 15 μg cell membrane protein, 1 nM [^3H]WIN35428 (WIN35428, [N-methyl-^3H], specific activity 85.9 Ci/mmol; PerkinElmer, Boston, Mass.), and varying concentrations of either unlabeled WIN35428 or the test compound. A reaction to determine non-specific binding contained 15 μg cell membrane protein, 1 nM [^3H]WIN35428, and 10 μM final concentration of unlabeled WIN35428. The reactions were incubated at 22° C. for 1 hour. Following incubation, the reactions were terminated by rapid filtration through separate GF/B filter strips pretreated with 0.2% polyethylenimine in a 48-well Brandel cell harvester. The cell membrane-containing filter strips were then rinsed five times with ice-cold 0.9% NaCl. After rinsing, individual filters were cut from the strip and placed in a scintillation vial containing 6.5 mL of Redi-Safe (Beckman-Coulter, Fullerton, Calif.).
as §3

hSERT, hNET, hDAT = test: Human transporter binding: rank order and range of potency over the three transporters; conditions: for Potency (rank-order of potency of binding; S = hSERT, N = hNET, D = hDAT): from KD values; for Potency Range (difference between most potent and least potent binding): ratio of KD over hSERT, hNET, hDAT
Source text: as §3

Male Sprague-Dawley rats = test: Forced swim test in rats; format: in vivo, rat; conditions: for Antidepressant activity in forced swim test compared with imipramine (15 mg/kg IP): FIG. 12A
Description: When rats are placed in a cylinder of water from which they cannot escape, they will remain immobile in the water for the majority of the test.
Water was changed between trials, and the procedure involved a pretest and a 5-minute test separated by 24 hours. During the pretest, rats (adapted to the experimental room for no less than one hour) were placed in the cylinder for 15 minutes. Following this initial exposure, the rats were dried with towels and transferred to a “drying cage” situated under a warming lamp. […] The following day, rats were transferred to the experimental room and acclimated for at least one hour.
The rat was considered immobile when floating motionless or making only those movements necessary to keep its head above the surface of the water. Scores for each behavior (swimming or immobility) were expressed as total counts per 5-minute session. Statistical analysis was performed using ANOVA followed by the Tukey test for post-hoc comparisons.

hERG = hERG (Homo sapiens, UniProt Q12809); test: hERG assay: block of rubidium ion (Rb+) efflux from cells expressing hERG
Chain of hERG (Q12809 whole entry): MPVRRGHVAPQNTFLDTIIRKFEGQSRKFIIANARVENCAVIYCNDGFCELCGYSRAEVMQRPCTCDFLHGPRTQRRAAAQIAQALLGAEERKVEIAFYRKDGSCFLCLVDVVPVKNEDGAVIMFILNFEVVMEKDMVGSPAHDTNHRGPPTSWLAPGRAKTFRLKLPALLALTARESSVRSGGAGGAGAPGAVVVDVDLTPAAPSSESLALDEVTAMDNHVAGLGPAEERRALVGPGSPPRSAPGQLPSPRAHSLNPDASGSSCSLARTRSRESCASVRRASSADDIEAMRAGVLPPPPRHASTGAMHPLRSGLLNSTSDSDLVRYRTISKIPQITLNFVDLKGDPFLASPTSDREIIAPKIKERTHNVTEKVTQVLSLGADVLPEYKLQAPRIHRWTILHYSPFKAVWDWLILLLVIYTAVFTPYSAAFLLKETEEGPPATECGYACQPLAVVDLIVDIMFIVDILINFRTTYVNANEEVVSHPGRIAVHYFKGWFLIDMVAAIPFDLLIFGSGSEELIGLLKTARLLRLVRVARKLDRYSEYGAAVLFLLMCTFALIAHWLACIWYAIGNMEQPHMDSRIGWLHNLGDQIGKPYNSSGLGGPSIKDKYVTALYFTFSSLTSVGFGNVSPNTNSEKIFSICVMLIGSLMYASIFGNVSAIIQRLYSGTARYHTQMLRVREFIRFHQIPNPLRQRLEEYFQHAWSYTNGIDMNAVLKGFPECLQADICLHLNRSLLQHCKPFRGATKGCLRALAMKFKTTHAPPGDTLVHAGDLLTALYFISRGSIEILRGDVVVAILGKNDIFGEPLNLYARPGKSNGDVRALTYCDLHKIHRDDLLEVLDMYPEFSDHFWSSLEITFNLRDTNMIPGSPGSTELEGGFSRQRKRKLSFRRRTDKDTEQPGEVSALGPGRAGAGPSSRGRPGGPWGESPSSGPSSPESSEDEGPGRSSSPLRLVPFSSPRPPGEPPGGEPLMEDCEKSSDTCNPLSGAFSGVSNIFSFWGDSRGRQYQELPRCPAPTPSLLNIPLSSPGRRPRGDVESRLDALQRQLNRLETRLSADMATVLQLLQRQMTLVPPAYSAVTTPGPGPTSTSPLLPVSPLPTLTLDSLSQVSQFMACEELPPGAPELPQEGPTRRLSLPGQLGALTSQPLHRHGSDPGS
Description: Human “ether-a-go-go” (hERG) is an ion channel. Blockade of this channel can be predictive of causing cardiac arrhythmias in humans. hERG assays were performed to measure the ability of a compound to block rubidium ion (Rb^+) efflux from cells expressing hERG. Cells were pre-loaded with Rb^+, incubated with test compound, and then exposed to a buffer that opens the channel and allows the efflux of ions. Compounds as powder were dissolved in 100% DMSO to prepare 100 mM stock solutions. […] The stocks were stored at 23° C.
The range of doses for the test compounds was 30 nM through 100,000 nM.

[4] = tested on: rat 5-HT, NE and DA transport, synaptosomal preparations; test: Rat brain synaptosomal transport: rank order of potency; format: biochemical
Description: The dissected tissues were separately homogenized in 20 volumes (cortical) or 40 volumes (striatal) of ice-cold, oxygenated HEPES buffer 0.32 M sucrose containing 11 mM glucose (pH 7.4) in a glass Potter-Elvehjem homogenizer with Teflon® pestle (8 strokes, 900 rpm). The homogenates were centrifuged at 1,000×g for 10 minutes. The resulting supernatant was decanted and further centrifuged at 20,000×g for 20 minutes at 4° C. […] The synaptosomal protein concentration was determined by using the BCA assay (Pierce Biotechnology Inc, Rockford, Ill.), according to the manufacturer's instructions. Synaptosomal protein (1.0-2.5 mg) was suspended in 1 mL oxygenated incubation buffer as defined above. Test amine compound was pre-incubated with the synaptosomal preparation for 30 minutes at 37° C. in a shaking water bath (80 oscillations/minute).

SMILES	Kd [1]	Binding at hSERT compared to PRC200-SS [1]	Kd [2]	Kd [3]	Binding at hDAT compared to PRC200-SS [3]	Potency (rank-order of potency of binding; S = hSERT, N = hNET, D = hDAT) (hSERT, hNET, hDAT)	Potency Range (difference between most potent and least potent binding) (hSERT, hNET, hDAT)	Immobility in forced swim test vs saline (Male Sprague-Dawley rats; 5 mg/kg IP)	Swimming in forced swim test vs saline (Male Sprague-Dawley rats; 5 mg/kg IP)	Antidepressant activity in forced swim test compared with imipramine (15 mg/kg IP) (Male Sprague-Dawley rats; 5 mg/kg IP)	IC50 (hERG)	Immobility in forced swim test, 5 mg/kg IP vs 5 mg/kg PO of the same compound (Male Sprague-Dawley rats)	Immobility in forced swim test vs saline (Male Sprague-Dawley rats; 5 mg/kg IP, 5 mg/kg)	Swimming in forced swim test vs saline (Male Sprague-Dawley rats; 5 mg/kg IP, 5 mg/kg)	Climbing in forced swim test vs saline (Male Sprague-Dawley rats; 5 mg/kg PO)	Immobility in forced swim test vs saline (Male Sprague-Dawley rats; 5 mg/kg PO)	Swimming in forced swim test vs saline (Male Sprague-Dawley rats; 5 mg/kg PO)	Potency (rank order, transport into rat brain synaptosomal preparations) [4]
CNC[C@H](c1ccc2ccccc2c1)[C@@H](Cl)c1ccccc1 [MCJ001-Cl-RS, (2S,3R)-3-chloro-N-methyl-2-(naphthalen-2-yl)-3-phenylpropan-1-amine]	1.1 ± 0.1 nM	greater binding at hSERT	10.4 ± 0.4 nM	7.9 ± 0.4 nM	several fold more potent binding at hDAT	S > D > N	9.5 fold	statistically (P<0.04) less immobility	statistically (P<0.04) more swimming behavior	antidepressant activity that was similar to that observed in rats treated with the positive control								
CNC[C@H](c1ccc2ccccc2c1)[C@H](Cl)c1ccccc1 [MCJ001-Cl-SS, (2S,3S)-3-chloro-N-methyl-2-(naphthalen-2-yl)-3-phenylpropan-1-amine]	1.1 ± 0.1 nM	greater binding at hSERT	3.7 ± 0.5 nM	78 ± 5 nM		S > N > D	71 fold	statistically (P<0.04) less immobility	statistically (P<0.04) more swimming behavior	antidepressant activity that was similar to that observed in rats treated with the positive control	45400 nM							
CN1CO[C@H](c2ccccc2)[C@@H](c2ccc3ccccc3c2)C1 [MCJ001-OH-Cyc-SS, (5S,6S)-3-methyl-5-(naphthalen-2-yl)-6-phenyl-1,3-oxazinane]	1.8 ± 0.2 nM	greater binding at hSERT	2.7 ± 0.3 nM	52 ± 5 nM		S > N > D	29 fold			antidepressant activity that was similar to that observed in rats treated with the positive control		statistically (P≦0.04) less immobility than rats treated with MCJ001-OH-Cyc-SS (5 mg/kg PO)	statistically (P<0.04) less immobility; also recorded: statistically (P≦0.04) less immobility	statistically (P<0.04) more swimming behavior	statistically (P≦0.04) more climbing	statistically (P≦0.04) less immobility	statistically (P≦0.04) more swimming	
C[N+]1(C)CN[C@H](c2ccccc2)[C@@H](c2ccc3ccccc3c2)C1.[Cl-] [MCJ002-NH2-Cyc-SS, (4S,5S)-1,1-dimethyl-5-(naphthalen-2-yl)-4-phenylhexahydropyrimidin-1-ium chloride]	1.9 ± 0.2 nM	greater binding at hSERT	100 ± 10 nM	18 ± 2 nM	Enhanced binding to hDAT	S > D > N	53 fold											
CN1Cc2c(N)cccc2C(c2ccccc2)C1 (stereo not drawn) [Nomifensine, reference compound]						N > D > S												N > D > S
